In general, IC50 refers to the concentration that inhibits the measured activity by half.

Structures are written as SMILES.

In this assay the target is Dihydroorotate dehydrogenase (quinone), mitochondrial (Homo sapiens, UniProt Q02127). As to the kind of experiment: Inhibition of DHODH (unknown origin) using L-dihydroorotic acid as substrate preincubated for 30 mins followed by substrate addition measured every 10 mins in presence of decylubiquinone by DCIP dye based coupled enzyme assay.
Dihydroorotate dehydrogenase (quinone), mitochondrial, sequence (Q02127 whole entry): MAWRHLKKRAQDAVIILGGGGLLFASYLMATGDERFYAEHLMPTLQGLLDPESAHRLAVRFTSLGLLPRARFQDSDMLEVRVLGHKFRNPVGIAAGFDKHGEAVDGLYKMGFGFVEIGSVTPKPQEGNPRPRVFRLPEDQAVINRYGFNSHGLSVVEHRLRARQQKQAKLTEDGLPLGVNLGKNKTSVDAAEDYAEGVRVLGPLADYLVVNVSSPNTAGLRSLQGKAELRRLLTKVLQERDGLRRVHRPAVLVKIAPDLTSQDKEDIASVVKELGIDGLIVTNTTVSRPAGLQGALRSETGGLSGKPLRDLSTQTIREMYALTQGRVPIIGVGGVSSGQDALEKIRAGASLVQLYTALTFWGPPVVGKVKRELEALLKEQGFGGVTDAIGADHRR
Turning to `Cc1nc2c(C(=O)O)cc(-c3c(F)c(F)c(-c4ccc(CN5CCCC(F)(F)C5)cc4)c(F)c3F)cc2[nH]1`, the concentration for half-maximal inhibition (IC50) came to 1 nM.
As for `Cc1nc2c(C(=O)O)cc(-c3ccc(-c4ccccc4)cc3)cc2[nH]1`, the figure is 10 nM; as for `Cc1nc2c(C(=O)O)cc(-c3ccc(-n4c(C)ccc4C)cc3)cc2[nH]1`, 1 nM.
As for `Cc1nc2c(C(=O)O)cc(-c3ccc(-c4ccccc4CN4CCCC4)cc3)cc2[nH]1`, the figure is 1 nM.
As for `Cc1nc2c(C(=O)O)cc(-c3c(F)c(F)c(-c4ccccc4)c(F)c3F)cc2[nH]1`, the figure is 1 nM; as for `Cc1nc2c(C(=O)O)cc(-c3c(F)c(F)c(-c4ccc(CN5CCOCC5)cc4)c(F)c3F)cc2[nH]1`, 10 nM; as for `Cc1nc2c(C(=O)O)cc(-c3ccc(-c4ccc(O)cc4)cc3)cc2[nH]1`, 10 nM.
With `Cc1cccc(-c2ccc(-c3cc(C(=O)O)c4nc(C)[nH]c4c3)cc2)c1`, the IC50 came out at 1 nM.

The values above are taken from ChEMBL document CHEMBL4725455, “Use of Dihydroorotate Dehydrogenase Inhibitors for Treatment of Autoimmune Diseases and Cancer” (ACS Med Chem Lett, 2020).
